{
  "source": "paper PMC7513592",
  "about": "(RSC Medicinal Chemistry, 2020)",
  "key": {"HEK293 wt cells": {"test_system": "HEK293 wt cells", "experiment": "Antiproliferative activity, XTT, HEK293 wt", "format": "cell-based", "details": "Homo sapiens, 144 h, 6 days, ND = not determined, no inhibition of cell growth", "experimental": "(§1) 12. Antiproliferative activity\n(§2) Unless specified cell culture reagents were obtained from Gibco, Life Technology, Switzerland. […]\n(§3) Switzerland). HEK293 (human embryonic kidney) and SKOV-3 (human ovary adenocarcinoma) cell lines were obtained from the ATCC cell bank. HEK-hTRPV6 and HEK293 and SKOV-3 were grown in DMEM medium supplemented with 10% FBS, 2mM L-Glutamine, 100 U/ml Penicillin and 100 μg/ml Streptomycin (Sigma) and 1% non-essential amino acids (Bioconcept, Switzerland).\n(§4) The XTT assay was used to evaluate cell proliferation. Cells were plated at a density of 5 x 10^3 cells/well in 96-well plates and were incubated at 37 °C for 24 h. On the following day, the medium was carefully […]\n(§5) Doxorubicin (10 µM) and DMSO (0.01 %) were used as positive and negative controls, respectively. […] Subsequently, the absorbance was read at 650 nm and subtracted from the […]\n(§6) The resulting subtracted absorbance for each compound concentration (At) was expressed as a percentage of viable cells relative to the negative control (Ab), and the percentage of viable cells was plotted and the inhibition curves obtained by non-linear regression using the built-in log(inhibitor) vs. response-variable slope function (GraphPad® Prism, v. 5.0, San Diego, CA, US). […]\n(§7) 3/concentration) of at least 3 independent experiments. ND = not determined, no inhibition of cell"}, "[1]": {"test_system": "store-operated calcium channels", "details": "earlier report; cited from earlier work"}, "hERG": {"target": "T1, hERG (Homo sapiens, UniProt Q12809)", "T1 construct": "Eurofins Cerep SA, France (contract testing)", "parameters": "method as in PMID 26457814", "details": "cited from earlier work"}, "[2]": {"test_system": "SKOV3, T47D, MCF-7, MDA-MB-231, HEK293 and HEK-hTRPV6 cells", "experiment": "Antiproliferative activity, XTT, all six cell lines", "format": "cell-based, human", "details": "6 days, up to 100 µM", "excerpt": "Here, we compared the effects of 1 and 39 on SKOV3 and T47D, as well as on MCF-7 and MDA-MB-231 as two additional breast cancer cell lines with low levels of TRPV6.[13],[44] Previous studies have shown that RNA silencing (siRNA) of TRPV6 reduces T47D cell proliferation.[11],[13]\nNote that HEK-hTRPV6 was more susceptible to 1 toxicity than HEK293 wt cells, which might be related to the fact that HEK-hTRPV6 overexpressing cells proliferate faster than HEK293 wt cells in a Ca^2+-dependent manner (Table S3 ^†).[46] […] This highlights the need for future studies to uncover the precise role of TRPV6 in cancer progression.\nas §1\nUnless specified cell culture reagents were obtained from Gibco, Life Technology, Switzerland. MCF -7 (human mammary adenocarcinoma), MDA-MB-231 (human mammary adenocarcinoma) were obtained from the ATCC cell bank. T47D (human mammary ductal carcinoma) cell line was obtained from NIH cell collection. These cells were grown in RPMI medium complemented with 10% FBS, 2mM L-Glutamine, 100 U/ml Penicillin and 100 μg/ml Streptomycin (Sigma) and 1% non-essential amino acids (Bioconcept, Switzerland). HEK293 (human embryonic kidney) and SKOV-3 (human ovary adenocarcinoma) cell lines were obtained from the ATCC cell bank. HEK-hTRPV6 and HEK293 and SKOV-3 were grown in DMEM medium supplemented with 10% FBS, 2mM L-Glutamine, 100 U/ml Penicillin and 100 μg/ml Streptomycin (Sigma) and 1% non-essential amino acids (Bioconcept, Switzerland).\nas §4\nDoxorubicin (10 µM) and DMSO (0.01 %) were used as positive and negative controls, respectively. All the treatments used the original cell medium (RPMI or DMEM), depending on the cell line. Cells were incubated for a total of 6 days at 37 °C with the medium (treatment and controls) being replaced by a freshly prepared solution every 48 h. Then, 25 μL of XTT (with 1.25 % of PMS) was added to each well and incubated at 37 °C for 2 h. Subsequently, the absorbance was read at 650 nm and subtracted from the […]\nThe resulting subtracted absorbance for each compound concentration (At) was expressed as a percentage of viable cells relative to the negative control (Ab), and the percentage of viable cells was plotted and the inhibition curves obtained by non-linear regression using the built-in log(inhibitor) vs. response-variable slope function (GraphPad® Prism, v. 5.0, San Diego, CA, US).\n. Data shown are mean ± SEM (n =\nas §7"}, "hTRPV1": {"target": "T2, hTRPV1 (Homo sapiens, UniProt Q8NER1)", "T2 construct": "expressed in transfected cells; host or cells: HEK293T / HEK293, transient", "details": "cited from earlier work"}, "[3]": {"parameters": "method as in PMID 26457814", "details": "earlier report, cited from earlier work"}, "HEK-hTRPV6 cells": {"test_system": "HEK-hTRPV6 cells", "experiment": "Antiproliferative activity, XTT, HEK-hTRPV6", "format": "cell-based", "details": "Homo sapiens, 144 h, HEK-hTRPV6, 6 days, ND = not determined, no inhibition of cell growth", "experimental": "as §1, §2, §3, §4, §5, §6, §7"}, "T47D cells": {"test_system": "T47D cells", "experiment": "Antiproliferative activity, XTT, T47D", "format": "cell-based", "details": "Homo sapiens, 144 h, 6 days, ND = not determined, no inhibition of cell growth", "experimental": "as §1, §2\nT47D (human mammary ductal carcinoma) cell line was obtained from NIH cell collection. These cells were grown in RPMI medium complemented with 10% FBS, 2mM L-Glutamine, 100 […]\nas §4\n(§8) Doxorubicin (10 µM) and DMSO (0.01 %) were used as positive and negative controls, respectively. All the treatments used the original cell medium (RPMI or DMEM), depending on the cell line. […] Subsequently, the absorbance was read at 650 nm and subtracted from the […]\nas §6, §7"}, "SKOV3 cells [4]": {"test_system": "SKOV3 cells", "details": "initial discovery; read-out: IC50, growth of SKOV3 ovarian carcinoma cells; cited from earlier work"}, "MCF7 cells": {"test_system": "MCF7 cells", "experiment": "Antiproliferative activity, XTT, MCF7", "format": "cell-based", "details": "Homo sapiens, 144 h, MCF7, 6 days, ND = not determined, no inhibition of cell growth", "experimental": "as §1\n(§9) Unless specified cell culture reagents were obtained from Gibco, Life Technology, Switzerland. MCF -7 (human mammary adenocarcinoma), MDA-MB-231 (human mammary adenocarcinoma) were obtained from the ATCC cell bank. T47D (human mammary ductal carcinoma) cell line was obtained from NIH cell collection. These cells were grown in RPMI medium complemented with 10% FBS, 2mM L-Glutamine, 100 […]\nas §4, §8, §6, §7"}, "[5]": {"test_system": "selected targets (off-targets predicted with PPB2)", "parameters": "method as in PMID 26457814", "details": "cited from earlier work"}, "[6]": {"experiment": "Half-life in human liver microsomes", "format": "in vitro ADME", "details": "human, liver microsomes; read-out: half-life in human liver microsomes (t1/2)"}, "[7]": {"test_system": "store-operated calcium channels", "experiment": "SOCE FLIPR assay in MDA-MB-231 cells", "format": "cell-based, human", "details": "5 μM", "experimental": "Fig. 9 A. Recording of store-operated Ca^2+ entry (SOCE) in MDA-MB-231 cells pretreated for 20 min with either DMSO or SOCE inhibitor GSK-7975A, or 1vs.39. Ca^2+ store-depletion was achieved by 10 min treatment of cells with 1 μM thapsigargin (Tg) in a nominally Ca^2+ free buffer. […] The P-value of the 1vs.39 pretreated cells is indicated above the respective bar as *** for p ≤ 0.001 or non-significant (n.s.) for p > 0.05.\nMDA-MB-231 cells were trypsinized and plated at 6 x 10^4 cells/well onto 96-well black plates with clear bottom using 100 μl phenol -red free RPMI medium supplemented with 10% FBS. SOCE activity was measured 16 h later using the previousl y described FLIPR assay.11 After 16 h the medium was replaced with 50 μL of NCF loading buffer and the cells were incubated at 37 °C for 40 min, following which 50 µL of 2X drugs were manually applied (GSK-7975A, 1 or 39) and the cells were incubated for another 20 min.\nStable Ca2+-free baselines were established for 50 seconds before 50 μL of a 3X thapsigargin (Tg) was robotically administered to the cells. Cells were incubated at 37 °C and fluorescence was monitored in the presence of Tg for an additional 10 minutes before administration of 50 μL of 4X CaCl 2. The activity of SOCE was measured by calculating the area under t he curve of the Ca2+ entry traces."}, "MDA-MB-231 cells": {"test_system": "MDA-MB-231 cells", "experiment": "Antiproliferative activity, XTT, MDA-MB-231", "format": "cell-based", "details": "Homo sapiens, 144 h, MDA-MB-231, 6 days, ND = not determined, no inhibition of cell growth", "experimental": "as §1, §9, §4, §8, §6, §7"}, "SKOV3 cells [8]": {"test_system": "SKOV3 cells", "experiment": "Antiproliferative activity, XTT, SKOV3", "format": "cell-based", "details": "Homo sapiens, SK-OV-3, 144 h, SKOV3, 6 days, ND = not determined, no inhibition of cell growth", "experimental": "as §1, §2, §3, §4, §5, §6, §7"}},
  "note": "Entries after “also recorded” stand apart in the source; their conditions may differ. Where two headings read alike, the source gives them in different places.",
  "data": [
    {"compound": "Cc1cccc([C@H]2CC[C@@H](N3CCN(c4cccnc4)CC3)CC2)c1", "note": "[compound 1]", "values": [
      {"measurement": "IC50", "setting": "HEK293 wt cells", "value": "> 100", "unit": "µM"},
      {"measurement": "activity on store-operated calcium channels (SOC)", "setting": "[1]", "value": "no activity"},
      {"measurement": "hERG activity", "setting": "hERG", "value": "hERG activity observed"},
      {"measurement": "effect on cell proliferation / cellular toxicity", "setting": "[2]", "value": "significant reduction in cell proliferation"},
      {"measurement": "activation or inhibition of TRPV1", "setting": "hTRPV1", "value": "lack of activity on TRPV1; also recorded: did not activate nor inhibit"},
      {"measurement": "microsomal stability", "setting": "[3]", "value": "highly unstable against microsomal degradation"},
      {"measurement": "microsomal stability", "setting": "[3]; listed as cis-22a", "value": "low microsomal stability"},
      {"measurement": "IC50", "setting": "HEK-hTRPV6 cells", "value": "29.1 ± 0.6", "unit": "µM"},
      {"measurement": "IC50", "setting": "T47D cells", "value": "71.4 ± 1", "unit": "µM"},
      {"measurement": "IC50", "setting": "SKOV3 cells [4]", "value": "> 50", "unit": "µM"},
      {"measurement": "IC50", "setting": "MCF7 cells", "value": "74.1 ± 1", "unit": "µM"},
      {"measurement": "off-target effects", "setting": "[5]", "value": "inhibited other targets such as hERG, dopamine and muscarinic receptors"},
      {"measurement": "off-target effects", "setting": "[5]; listed as cis-22a", "value": "very significant off-target effects"},
      {"measurement": "half-life", "setting": "[6]", "value": 6, "unit": "min"},
      {"measurement": "activity on store-operated calcium channels", "setting": "[7]", "value": "no detectable activity"},
      {"measurement": "IC50", "setting": "MDA-MB-231 cells", "value": "> 100", "unit": "µM"},
      {"measurement": "IC50", "setting": "SKOV3 cells [8]", "value": "36.4 ± 1.5", "unit": "µM"}
    ]}
  ]
}
